Experimental data reported in patent US7902373B2 (Pfizer Inc, priority 2006, dated 2011).

biological target: human recombinant H-PGDS (Homo sapiens, UniProt O60760); assay: Fluorescence intensity h-PGDS TBA enzyme assay; assay type: biochemical; details: Examples up to 622 (and 3a, 3b)
Sequence (O60760 whole entry): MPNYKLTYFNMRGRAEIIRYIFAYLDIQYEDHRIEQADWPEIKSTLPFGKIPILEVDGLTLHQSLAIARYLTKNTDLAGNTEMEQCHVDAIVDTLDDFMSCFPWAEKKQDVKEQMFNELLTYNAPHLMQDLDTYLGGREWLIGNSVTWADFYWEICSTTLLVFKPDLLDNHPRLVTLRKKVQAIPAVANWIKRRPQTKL

| SMILES | IC50 |
| --- | --- |
| CCC(COC)n1cnc2c(N3CCC(NC(=O)c4ccc(-c5cccc(F)c5)nc4)CC3)ncnc21 (stereo not drawn) [Example 110, 6-(3-Fluorophenyl)-N-(1-{9-[1-(methoxymethyl)propyl]-9H-purin-6-yl}piperidin-4-yl)nicotinamide] | 1.61 nM |
| N#Cc1ccc(C(=O)c2cccnc2N2CCC(NC(=O)c3ccc(-c4cccc(F)c4)nc3)CC2)cc1 [Example 111, N-{1-[3-(4-Cyanobenzoyl)pyridin-2-yl]piperidin-4-yl}-6-(3-fluorophenyl)nicotinamide] | 1.62 nM |
| O=C(NC1CCN(c2ncnc3c2ncn3C2CCCC2)CC1)c1ccc(-c2cccc(F)c2)nc1 [Example 112, N-[1-(9-Cyclopentyl-9H-purin-6-yl)piperidin-4-yl]-6-(3-fluorophenyl)nicotinamide] | 1.87 nM |
| O=C(NC1CCN(c2ccc(C(=O)N3CCCC3)cn2)CC1)c1ccc(-c2cccc(F)c2)nc1 [Example 114, 6-(3-Fluorophenyl)-N-{1-[5-(pyrrolidin-1-ylcarbonyl)pyridin-2-yl]piperidin-4-yl}nicotinamide] | 2.3 nM |
| Cc1cc(N2CCC(NC(=O)c3ccc(-c4cccc(F)c4)nc3)CC2)nc(N2CCCCC2)n1 [Example 116, 6-(3-Fluorophenyl)-N-[1-(6-methyl-2-piperidin-1-ylpyrimidin-4-yl)piperidin-4-yl]nicotinamide] | 2.56 nM |
| O=C(NC1CCN(c2nccc(-c3ccccc3CCO)n2)CC1)c1ccc(-c2cccc(F)c2)nc1 [Example 119, 6-(3-Fluorophenyl)-N-(1-{4-[2-(2-hydroxyethyl)phenyl]pyrimidin-2-yl}piperidin-4-yl)nicotinamide] | 3.74 nM |
| CCOC(=O)c1cnc(N2CCC(NC(=O)c3ccc(-c4cccc(F)c4)nc3)CC2)cc1N1CCOCC1 [Example 120, Ethyl 6-[4-({[6-(3-fluorophenyl)pyridin-3-yl]carbonyl}amino)piperidin-1-yl]-4-morpholin-4-ylnicotinate] | 3.49 nM |
| COc1cc2c(N3CCC(NC(=O)c4ccc(-c5cccc(F)c5)nc4)CC3)ncnc2c(OC)c1OC [Example 123, 6-(3-Fluorophenyl)-N-[1-(678-trimethoxyquinazolin-4-yl)piperidin-4-yl]nicotinamide] | 4.66 nM |
| O=C(NC1CCN(c2ncc(Br)cn2)CC1)c1ccc(-c2cccc(F)c2)nc1 [Example 127, N-[1-(5-Bromopyrimidin-2-yl)piperidin-4-yl]-6-(3-fluorophenyl)nicotinamide] | 4.01 nM |
| O=C(NC1CCN(c2ncnc3[nH]ncc23)CC1)c1ccc(-c2cccc(F)c2)nc1 [Example 129, 6-(3-Fluorophenyl)-N-[1-(1H-pyrazolo[3,4-d]pyrimidin-4-yl)piperidin-4-yl]nicotinamide] | 6.24 nM |
| COc1cc2nc(N3CCC(NC(=O)c4ccc(-c5cccc(F)c5)nc4)CC3)nc(N)c2cc1OC [Example 130, N-[1-(4-Amino-6,7-dimethoxyquinazolin-2-yl)piperidin-4-yl]-6-(3-fluorophenyl)nicotinamide] | 4.57 nM |
| Cc1cnc(C)c(N2CCC(NC(=O)c3ccc(-c4cccc(F)c4)nc3)CC2)n1 [Example 134, N-[1-(3,6-Dimethylpyrazin-2-yl)piperidin-4-yl]-6-(3-fluorophenyl)nicotinamide] | 1.81 nM |
| O=C(NC1CCN(c2nccc(C(F)(F)F)n2)CC1)c1ccc(-c2cccc(F)c2)nc1 [Example 136, 6-(3-Fluorophenyl)-N-{1-[4-(trifluoromethyl)pyrimidin-2-yl]piperidin-4-yl}nicotinamide] | 5.12 nM |
| COCc1cc(N2CCC(NC(=O)c3ccc(-c4cccc(F)c4)nc3)CC2)nc(-c2ccccc2)n1 [Example 144, 6-(3-Fluorophenyl)-N-{1-[6-(methoxymethyl)-2-phenylpyrimidin-4-yl]piperidin-4-yl}nicotinamide] | 9.56 nM |
| CCOC(=O)c1cnc(C(F)(F)F)nc1N1CCC(NC(=O)c2ccc(-c3cccc(F)c3)nc2)CC1 [Example 145, Ethyl 4-[4-({[6-(3-fluorophenyl)pyridin-3-yl]carbonyl}amino)piperidin-1-yl]-2-(trifluoromethyl)pyrimidine-5-carboxylate] | 5.94 nM |
| O=C(NC1CCN(c2ncccc2C(=O)N2CCOCC2)CC1)c1ccc(-c2cccc(F)c2)nc1 [Example 146, 6-(3-Fluorophenyl)-N-{1-[3-(morpholin-4-ylcarbonyl)pyridin-2-yl]piperidin-4-yl}nicotinamide] | 1.55 nM |
| NC(=O)c1ccc(C(F)(F)F)nc1N1CCC(NC(=O)c2ccc(-c3cccc(F)c3)nc2)CC1 [Example 148, 2-[4-({[6-(3-Fluorophenyl)pyridin-3-yl]carbonyl}amino)piperidin-1-yl]-6-(trifluoromethyl)nicotinamide] | 1.75 nM |

Now those with a lower IC50, led by results:

| IC50 | SMILES |
| --- | --- |
| 0.263 nM | COCCNC(=O)c1ccc(N2CCC(NC(=O)c3ccc(-c4cccc(F)c4)nc3)CC2)nc1 [Example 113, 6-(3-Fluorophenyl)-N-[1-(5-{[(2-methoxyethyl)amino]carbonyl}pyridin-2-yl)piperidin-4-yl]nicotinamide] |
| 0.241 nM | O=C(NC1CCN(c2ncnc3c2ncn3C2CC2)CC1)c1ccc(-c2cccc(F)c2)nc1 [Example 115, N-[1-(9-Cyclopropyl-9H-purin-6-yl)piperidin-4-yl]-6-(3-fluorophenyl)nicotinamide] |
| 0.429 nM | O=C(NC1CCN(c2ncnc3cc(F)ccc23)CC1)c1ccc(-c2cccc(F)c2)nc1 [Example 117, 6-(3-Fluorophenyl)-N-[1-(7-fluoroquinazolin-4-yl)piperidin-4-yl]nicotinamide] |
| 0.89 nM | CC(C)n1cnc2c(N3CCC(NC(=O)c4ccc(-c5cccc(F)c5)nc4)CC3)ncnc21 [Example 118, 6-(3-Fluorophenyl)-N-[1-(9-isopropyl-9H-purin-6-yl)piperidin-4-yl]nicotinamide] |
| 1.21 nM | Cc1nc(N2CCC(NC(=O)c3ccc(-c4cccc(F)c4)nc3)CC2)c(C#N)cc1F [Example 121, N-[1-(3-Cyano-5-fluoro-6-methylpyridin-2-yl)piperidin-4-yl]-6-(3-fluorophenyl)nicotinamide] |
| 0.168 nM | COc1ccc2c(N3CCC(NC(=O)c4ccc(-c5cccc(F)c5)nc4)CC3)ncnc2c1OC [Example 122, N-[1-(7,8-Dimethoxyquinazolin-4-yl)piperidin-4-yl]-6-(3-fluorophenyl)nicotinamide] |
| 0.345 nM | O=C(NC1CCN(c2ncnc3[nH]ccc23)CC1)c1ccc(-c2cccc(F)c2)nc1 [Example 124, 6-(3-fluorophenyl)-N-[1-(7H-pyrrolo[23-d]pyrimidin-4-yl)piperidin-4-yl]nicotinamide] |
| 0.176 nM | Cn1cnc2c(N3CCC(NC(=O)c4ccc(-c5cccc(F)c5)nc4)CC3)ncnc21 [Example 125, 6-(3-Fluorophenyl)-N-[1-(9-methyl-9H-purin-6-yl)piperidin-4-yl]nicotinamide] |
| 0.656 nM | N#Cc1cnc(N2CCC(NC(=O)c3ccc(-c4cccc(F)c4)nc3)CC2)nc1N [Example 126, N-[1-(4-Amino-5-cyanopyrimidin-2-yl)piperidin-4-yl]-6-(3-fluorophenyl)nicotinamide] |
| 0.687 nM | O=C(NC1CCN(c2nccc(Nc3cc[nH]n3)n2)CC1)c1ccc(-c2cccc(F)c2)nc1 [Example 128, 6-(3-Fluorophenyl)-N-{1-[4-(1H-pyrazol-3-ylamino)pyrimidin-2-yl]piperidin-4-yl}nicotinamide] |
| 0.463 nM | Cc1nnc(N2CCC(NC(=O)c3ccc(-c4cccc(F)c4)nc3)CC2)c2ccccc12 [Example 131, 6-(3-Fluorophenyl)-N-[1-(4-methylphthalazin-1-yl)piperidin-4-yl]nicotinamide] |
| 0.365 nM | Nc1nc(N2CCC(NC(=O)c3ccc(-c4cccc(F)c4)nc3)CC2)c2nc[nH]c2n1 [Example 132, N-[1-(2-Amino-9H-purin-6-yl)piperidin-4-yl]-6-(3-fluorophenyl)nicotinamide] |
| 0.395 nM | Cc1nc(N)cc(N2CCC(NC(=O)c3ccc(-c4cccc(F)c4)nc3)CC2)n1 [Example 133, N-[1-(6-Amino-2-methylpyrimidin-4-yl)piperidin-4-yl]-6-(3-fluorophenyl)nicotinamide] |
| 1.47 nM | O=C(NC1CCN(c2ncccc2C(F)(F)F)CC1)c1ccc(-c2cccc(F)c2)nc1 [Example 135, 6-(3-Fluorophenyl)-N-{1-[3-(trifluoromethyl)pyridin-2-yl]piperidin-4-yl}nicotinamide] |
| 1.41 nM | O=C(NC1CCN(c2ccc(Cl)cn2)CC1)c1ccc(-c2cccc(F)c2)nc1 [Example 137, N-[1-(5-Chloropyridin-2-yl)piperidin-4-yl]-6-(3-fluorophenyl)nicotinamide] |
| 1.23 nM | O=C(NC1CCN(c2cnc3ccccc3n2)CC1)c1ccc(-c2cccc(F)c2)nc1 [Example 138, 6-(3-Fluorophenyl)-N-(1-quinoxalin-2-ylpiperidin-4-yl)nicotinamide] |
| 0.222 nM | O=C(NC1CCN(c2ncccn2)CC1)c1ccc(-c2cccc(F)c2)nc1 [Example 139, 6-(3-Fluorophenyl)-N-(1-pyrimidin-2-ylpiperidin-4-yl)nicotinamide] |
| 0.628 nM | N#Cc1cccnc1N1CCC(NC(=O)c2ccc(-c3cccc(F)c3)nc2)CC1 [Example 140, N-[1-(3-Cyanopyridin-2-yl)piperidin-4-yl]-6-(3-fluorophenyl)nicotinamide] |
| 0.721 nM | Cc1noc(NC(=O)c2cccnc2N2CCC(NC(=O)c3ccc(-c4cccc(F)c4)nc3)CC2)c1C#N [Example 141, N-(4-Cyano-3-methylisoxazol-5-yl)-2-[4-({[6-(3-fluorophenyl)pyridin-3-yl]carbonyl}amino)piperidin-1-yl]nicotinamide] |
| 0.33 nM | N#Cc1nccnc1N1CCC(NC(=O)c2ccc(-c3cccc(F)c3)nc2)CC1 [Example 142, N-[1-(3-Cyanopyrazin-2-yl)piperidin-4-yl]-6-(3-fluorophenyl)nicotinamide] |
| 0.688 nM | Cc1cc(N(C)C)nc(N2CCC(NC(=O)c3ccc(-c4cccc(F)c4)nc3)CC2)n1 [Example 143, N-{1-[4-(Dimethylamino)-6-methylpyrimidin-2-yl]piperidin-4-yl}-6-(3-fluorophenyl)nicotinamide] |
| 0.737 nM | O=C(NC1CCN(c2ncnc3c2ncn3C2CCCCO2)CC1)c1ccc(-c2cccc(F)c2)nc1 (stereo not drawn) [Example 147, 6-(3-Fluorophenyl)-N-{1-[9-(tetrahydro-2H-pyran-2-yl)-9H-purin-6-yl]piperidin-4-yl}nicotinamide] |
